Test results from PubChem BioAssay AID686993 (Broad Institute, 2013).
Values joined by “and” are separate entries in the source; they are usually repeats but may differ in a detail not shown here. Identical values can stand only once. Records with an inconclusive call do not appear. Active and inactive are the calls of the source.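 The calls were made as follows: active = compound whose fitted half-maximal inhibitory dose is at most twice its top valid dose in every replicate test; inconclusive = replicate test calls disagree with one another; inactive = all replicate tests inactive, including opposite-direction effects.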

Target: UDP-N-acetylbacillosamine N-acetyltransferase PglD (Campylobacter jejuni)
Test: PglD acetyltransferase inhibitors, dose response, biochemical, DTNB absorbance, dry powder samples, set 4 (AID 686993)
Conditions: purified PglD, DTNB absorbance 412 nm, CoA release

AC50 | activity change, negative = inhibition (at 10 µM (top of the series)) | activity change, negative = inhibition (at 38 µM (top of the series)) | SMILES
4.54 µM | – | – | Cc1c(C(=O)O)sc2nc(/C=C/c3cc4ccccc4cn3)[nH]c(=O)c12
29.1 µM | – | – | Cc1c(C(=O)O)sc2nc(/C=C/c3cccc(C(F)(F)F)c3)[nH]c(=O)c12
– | inactive | – | Cc1c(C(=O)O)sc2nc(/C=C/c3cnc4ccccc4c3)[nH]c(=O)c12
– | inactive | – | Cc1c(C(=O)O)sc2nc(/C=C/c3ccncc3)[nH]c(=O)c12
17.6 µM | – | – | Cc1c(C(=O)O)sc2nc(/C=C/c3cccc(C(N)=O)c3)[nH]c(=O)c12
18.2 µM | – | – | Cc1c(C(=O)O)sc2nc(/C=C/C=C/c3ccccc3)[nH]c(=O)c12
30.5 µM | – | – | Cc1c(C(=O)O)sc2nc(/C=C/c3ccc4ccccc4c3)[nH]c(=O)c12
7.23 µM | – | – | Cc1c(C(=O)O)sc2nc(/C=C/c3cccc(F)c3)[nH]c(=O)c12
2.58 µM | – | – | Cc1c(C(=O)O)sc2nc(/C=C/c3ccccn3)[nH]c(=O)c12
8.04 µM | – | – | Cc1c(C(=O)O)sc2nc(/C=C/c3ccccc3)[nH]c(=O)c12
8.28 µM | – | – | Cc1c(C(=O)O)sc2nc(CCc3cccc(O)c3)[nH]c(=O)c12
11.7 µM and 1.93 µM | – | inactive | Cc1c(C(=O)O)sc2nc(/C=C/c3cccc(O)c3)[nH]c(=O)c12
14.6 µM | – | – | Cc1c(C(=O)O)sc2nc(/C=C/c3ccc(N)nc3)[nH]c(=O)c12
3.97 µM | – | – | Cc1c(C(=O)O)sc2nc(/C=C/c3ccc4[nH]ccc4c3)[nH]c(=O)c12
– | – | inactive | Cc1c(C(=O)O)sc2nc(/C=C/C3CC3)[nH]c(=O)c12
– | – | inactive | Cc1c(C(=O)O)sc2nc(/C=C/c3ccnc4ccccc34)[nH]c(=O)c12
7.87 µM | – | – | Cc1c(C(=O)O)sc2nc(/C=C/c3ccc4cc[nH]c4c3)[nH]c(=O)c12
